One data set deals with Plasmodium falciparum. As to the kind of experiment: Antiplasmodial activity against chloroquine-resistant Plasmodium falciparum FCR-3 infected in human A positive erythrocytes by [3H]-hypoxanthine incorporation assay. The conditions noted are these: FCR-3/Gambia. In kind it is functional, organism-based.
For another data set, the system named is MRC5. As to the kind of experiment: Cytotoxicity against human MRC5 cells. In kind it is cell-based.
The nature of data set [1]: Selectivity index, ratio of IC50 for human MRC5 cells to IC50 for chloroquine-resistant Plasmodium falciparum FCR-3. In kind it is toxicity, cell-based. The conditions noted are these: read-out: Ratio IC50.

The structures appear in SMILES notation.

The record followed here is ChEMBL document CHEMBL2311460, “Synthesis and antiplasmodial activity of some 1-azabenzanthrone derivatives” (Bioorg Med Chem Lett, 2013).

For orientation: IC50 means the concentration needed to halve the response being measured. A lower IC50 goes with inhibition by little substance.

On to `COc1cc2c3c(nccc3c1N)-c1ccccc1C2=O`, for which the figures for the half-inhibitory concentration (IC50) in the data set on Plasmodium falciparum and in the data set on MRC5 were 100 µM and 37 µM, respectively. Further, the selectivity ratio in data set [1] is 0.37.

In the case of `COc1cc2c3c(nccc3c1Br)-c1ccccc1C2=O`, the IC50 is 52 µM in the data set on Plasmodium falciparum and above 100 µM with MRC5. For the same compound, the selectivity ratio in data set [1] was above 1.99.

Regarding `COc1cc2ccnc3c2c(c1OC)C(=O)c1ccccc1-3`, the results for the IC50 in the data set on Plasmodium falciparum and in the data set on MRC5 were 74 µM and 50.5 µM, respectively. Further, in data set [1], the selectivity ratio turned out to be 0.68.

`O=C1c2ccccc2-c2ncc(Br)c3cccc1c23`: the figures for the half-inhibitory concentration (IC50) in the data set with Plasmodium falciparum and in the data set with MRC5 were 260 µM and above 100 µM, respectively. In addition, the selectivity ratio in data set [1] is above 0.38.

Consider `COc1cc2c3c(nccc3c1)-c1ccccc1C2=O`, for which the concentration for half-maximal inhibition (IC50) with Plasmodium falciparum was 6.4 µM; in the data set with MRC5, above 100 µM. In data set [1], the selectivity ratio is above 15.6.

Regarding `COc1cc2ccnc3c2c(c1N)C(=O)c1ccccc1-3` [LAKSHMININE], the results for the IC50 in the data set on Plasmodium falciparum and in the data set with MRC5 were 100 µM and 17.9 µM, respectively. Further, in data set [1], the selectivity ratio turned out to be 0.18.

In the case of `COc1cc2ccnc3c2c(c1[N+](=O)[O-])C(=O)c1ccccc1-3`, the 50% inhibitory concentration (IC50) with Plasmodium falciparum was 56 µM; with MRC5 it was 80 µM. Besides, the selectivity ratio in data set [1] is 1.42.

For the compound `O=C1c2ccccc2-c2nccc3cccc1c23`, the concentration for half-maximal inhibition (IC50) was 230 µM with Plasmodium falciparum and 41.6 µM with MRC5. In data set [1], the selectivity ratio amounted to 0.18.

As to `COc1cc2c3c(ncc(Br)c3c1)-c1ccccc1C2=O`, the IC50 with Plasmodium falciparum was 220 µM; in the data set on MRC5 it was 28.9 µM. Moreover, the selectivity ratio in data set [1] was 0.13.

On to `COc1cc2c3c(nccc3c1[N+](=O)[O-])-c1ccccc1C2=O`, for which the IC50 in the data set with Plasmodium falciparum amounted to 21 µM; with MRC5, 10.2 µM. Moreover, the selectivity ratio in data set [1] worked out at 0.49.

As to `COc1cc2c3c(c1)C(=O)c1ccccc1C3=NCC2`, the 50% inhibitory concentration (IC50) in the data set on Plasmodium falciparum came to 2.5 µM; in the data set with MRC5, 81.3 µM. Further, in data set [1], the selectivity ratio was 32.4.

Turning to `COc1cc2ccnc3c2c(c1O)C(=O)c1ccccc1-3`, the 50% inhibitory concentration (IC50) with Plasmodium falciparum came out at 51 µM; in the data set on MRC5, 65.1 µM. In addition, in data set [1], the selectivity ratio came out at 1.27.
